2 molecules from ChEMBL document CHEMBL1177747, “Cytotoxic flavonoids as agonists of peroxisome proliferator-activated receptor gamma on human cervical and prostate cancer cells” (J Nat Prod, 2010) can be followed below.

Assay [1] deals with T1, Peroxisome proliferator-activated receptor gamma (Homo sapiens) (UniProt P37231).
T1 sequence (whole entry): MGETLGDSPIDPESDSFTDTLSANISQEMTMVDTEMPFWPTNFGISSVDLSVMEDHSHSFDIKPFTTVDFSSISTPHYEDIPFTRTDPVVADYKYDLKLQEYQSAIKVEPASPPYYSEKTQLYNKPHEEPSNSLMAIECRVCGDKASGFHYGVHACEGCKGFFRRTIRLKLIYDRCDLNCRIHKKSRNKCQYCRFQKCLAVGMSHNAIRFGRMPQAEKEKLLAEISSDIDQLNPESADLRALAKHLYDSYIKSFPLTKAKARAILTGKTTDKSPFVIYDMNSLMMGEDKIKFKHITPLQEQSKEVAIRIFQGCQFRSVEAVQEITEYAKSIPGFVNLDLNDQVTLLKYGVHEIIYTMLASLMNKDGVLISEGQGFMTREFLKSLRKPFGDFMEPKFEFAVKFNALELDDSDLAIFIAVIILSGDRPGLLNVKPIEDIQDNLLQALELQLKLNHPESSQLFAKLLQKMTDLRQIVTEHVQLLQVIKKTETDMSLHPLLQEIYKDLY
Description: Agonist activity at human PPARgamma expressed in Escherichia coli BL21 assessed as stimulation of binding between receptor and steroid receptor coactivator-1 at 320 uM by ELISA relative to untreated control.

Assay [2] has as its target T1, Peroxisome proliferator-activated receptor gamma (Homo sapiens). Description: Binding affinity to human PPARgamma expressed in Escherichia coli BL21 assessed as binding constant by fluorescence quenching assay.
The subject of another assay is HeLa. Description: Cytotoxicity against human HeLa cells after 48 hrs by MTT assay. It is filed as functional, cell-based. For orientation: Tetrazolium dyes change colour on reduction, which living cells bring about.
In another assay the test system is MCF7. Description: Cytotoxicity against human MCF7 cells after 48 hrs by MTT assay. The conditions noted are these: MCF7, 48 h. Type of assay: functional, cell-based.
Another assay deals with MDA-MB-231. Description: Cytotoxicity against human MDA-MB-231 cells after 48 hrs by MTT assay. Type of assay: functional, cell-based. The conditions noted are these: MDA-MB-231, 48 h.
Another assay concerns PC-3. Description: Cytotoxicity against human PC3 cells after 48 hrs by MTT assay. It is filed as functional, cell-based. The conditions noted are these: PC-3, 48 h.
For the next assay, the system named is A549. Description: Cytotoxicity against human A549 cells after 48 hrs by MTT assay. The conditions noted are these: A549, 48 h. Type of assay: functional, cell-based.
Assay [3] has as its target T1, Peroxisome proliferator-activated receptor gamma (Homo sapiens). Description: Agonist activity at human PPARgamma expressed in Escherichia coli BL21 assessed as stimulation of binding between receptor and steroid receptor coactivator-1 by ELISA. (In general: ELISA stands for enzyme-linked immunosorbent assay.)

For `COc1ccc2c(c1)c(CC(=O)O)c(C)n2C(=O)c1ccc(Cl)cc1` [INDOMETHACIN], the fold change (FC) in assay [1] came out at 2. Besides, the K in assay [2] came to 3.39 ×10⁵ /M. For the same molecule, the IC50 (commonly the concentration that inhibits the measured activity by half) in the assay with HeLa was 50 µM; in the assay with MCF7, greater than 100 µM; in the assay with MDA-MB-231 it was greater than 100 µM; in the assay with PC-3, greater than 100 µM; in the assay on A549, greater than 100 µM.

As for `O=c1c(O)c(-c2ccccc2)oc2ccc(O)cc12`, the Activity entry in assay [3] was “Dose-dependent effect”. Also, the fold change (FC) in assay [1] turned out to be 7. Besides, the K in assay [2] came out at 2.36 ×10⁵ /M. In addition, the IC50 was 12.5 µM with HeLa; greater than 100 µM in the assay with MCF7; greater than 100 µM with MDA-MB-231; 50 µM in the assay with PC-3; 100 µM in the assay with A549.
